One assay addresses PARP1 (Homo sapiens (Human), UniProt P09874). In words: PARP1 biochemical assay (Trevigen kit). An excerpt:
PARP1 biochemical assay was purchased as a kit from Trevigen (cat.#4676-096-K) and used per manufacturers recommendations.

Assay [1] concerns Axin2 accumulation in SW480 cells. In words: Axin2 384 immunofluorescence assay. Format: cell-based. The note with it: Homo sapiens, read-out: Axin2 384 IF EC50.
For a further assay, the target named is PARP2 (Homo sapiens (Human), UniProt Q9UGN5). The experiment in a line: PARP2 biochemical assay (BPS kit).
Chain of PARP2 (Q9UGN5 whole entry): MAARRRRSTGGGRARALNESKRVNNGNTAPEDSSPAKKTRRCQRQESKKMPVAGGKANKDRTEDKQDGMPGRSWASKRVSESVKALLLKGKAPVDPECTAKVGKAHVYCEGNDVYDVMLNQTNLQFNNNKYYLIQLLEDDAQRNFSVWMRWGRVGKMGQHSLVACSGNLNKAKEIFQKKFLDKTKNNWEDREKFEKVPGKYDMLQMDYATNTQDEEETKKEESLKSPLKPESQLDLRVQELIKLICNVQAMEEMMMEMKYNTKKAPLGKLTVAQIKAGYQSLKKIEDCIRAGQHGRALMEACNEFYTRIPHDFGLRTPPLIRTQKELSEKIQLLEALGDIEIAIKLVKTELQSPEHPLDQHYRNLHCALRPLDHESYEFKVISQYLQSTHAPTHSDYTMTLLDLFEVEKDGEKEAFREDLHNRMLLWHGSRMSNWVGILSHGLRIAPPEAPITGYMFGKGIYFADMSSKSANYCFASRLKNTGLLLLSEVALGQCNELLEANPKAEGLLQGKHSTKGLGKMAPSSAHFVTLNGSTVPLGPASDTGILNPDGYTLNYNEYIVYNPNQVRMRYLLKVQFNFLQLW
In assay [2] the target is 6×HIS-tankyrase1 (1091-1325) (Homo sapiens (Human), UniProt O95271). The experiment in a line: Tankyrase 1 biochemical assay (AlphaLisa, PARsylation). The note with it: read-out: TNKS1 IC50. (Bead proximity is the source of the signal in Alpha formats.)
Chain of 6×HIS-tankyrase1 (1091-1325) (O95271 1091-1325): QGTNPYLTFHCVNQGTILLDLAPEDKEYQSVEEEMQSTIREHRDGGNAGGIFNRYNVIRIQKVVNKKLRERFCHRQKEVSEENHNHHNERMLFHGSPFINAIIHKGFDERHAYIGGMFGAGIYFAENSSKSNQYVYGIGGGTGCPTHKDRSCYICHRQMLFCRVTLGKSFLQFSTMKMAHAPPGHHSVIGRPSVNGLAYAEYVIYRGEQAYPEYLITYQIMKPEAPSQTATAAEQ
Assay [3] has as its target 6×HIS-tankyrase 2 (946-1162) (Homo sapiens (Human), UniProt Q9H2K2). The experiment in a line: Tankyrase 2 biochemical assay (AlphaLisa, PARsylation). As to conditions: 250 nM NAD; read-out: TNKS2 IC50.
Assay [4] relates to total β-catenin in SW480 colorectal cells. In words: Total β-catenin MSD 96-well plate assay for SW480 cells. The note with it: Homo sapiens, SW480, read-out: SW480-Total beta-catenin (TBC) IC50 IP.

Like-named read-outs stand apart in the source and are kept apart here.

Chain of PARP1 (P09874 whole entry): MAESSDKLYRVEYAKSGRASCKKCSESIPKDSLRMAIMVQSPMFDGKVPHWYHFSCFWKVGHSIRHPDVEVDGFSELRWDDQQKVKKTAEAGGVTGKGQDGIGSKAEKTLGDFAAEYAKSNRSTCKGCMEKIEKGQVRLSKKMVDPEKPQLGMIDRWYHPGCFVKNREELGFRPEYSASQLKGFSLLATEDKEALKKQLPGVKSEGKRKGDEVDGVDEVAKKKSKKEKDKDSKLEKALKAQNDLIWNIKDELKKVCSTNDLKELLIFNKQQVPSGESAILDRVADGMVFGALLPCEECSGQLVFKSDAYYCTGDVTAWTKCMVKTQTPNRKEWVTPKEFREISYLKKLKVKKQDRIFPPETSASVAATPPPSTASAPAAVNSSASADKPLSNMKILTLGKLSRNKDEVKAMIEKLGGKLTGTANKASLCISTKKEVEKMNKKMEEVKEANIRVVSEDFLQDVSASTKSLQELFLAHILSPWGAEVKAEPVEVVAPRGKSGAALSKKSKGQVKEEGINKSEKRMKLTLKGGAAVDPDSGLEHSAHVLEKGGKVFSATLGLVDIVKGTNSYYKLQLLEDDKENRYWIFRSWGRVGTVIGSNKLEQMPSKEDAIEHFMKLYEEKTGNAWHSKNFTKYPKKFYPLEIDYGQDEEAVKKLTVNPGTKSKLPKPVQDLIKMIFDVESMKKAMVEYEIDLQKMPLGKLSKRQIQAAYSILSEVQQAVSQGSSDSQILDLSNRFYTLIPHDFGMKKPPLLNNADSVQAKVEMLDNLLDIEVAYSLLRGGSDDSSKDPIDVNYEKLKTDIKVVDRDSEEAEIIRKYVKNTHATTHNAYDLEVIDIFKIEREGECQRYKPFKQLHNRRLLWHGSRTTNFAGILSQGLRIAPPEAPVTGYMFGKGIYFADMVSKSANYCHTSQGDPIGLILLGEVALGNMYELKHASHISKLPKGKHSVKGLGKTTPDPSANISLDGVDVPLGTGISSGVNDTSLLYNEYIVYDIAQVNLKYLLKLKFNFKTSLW
Chain of 6×HIS-tankyrase 2 (946-1162) (Q9H2K2 946-1162): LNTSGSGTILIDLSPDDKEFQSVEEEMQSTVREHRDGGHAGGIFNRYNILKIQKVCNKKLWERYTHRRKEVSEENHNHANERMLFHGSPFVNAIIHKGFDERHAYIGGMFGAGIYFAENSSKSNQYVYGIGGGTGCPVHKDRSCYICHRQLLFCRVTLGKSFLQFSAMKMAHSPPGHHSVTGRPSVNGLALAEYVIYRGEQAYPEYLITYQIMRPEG

Broadly, the IC50 is the point on the concentration scale where inhibition reaches its midpoint. By EC50 is commonly meant the concentration needed to bring the measured effect to its halfway point. With `O=C(CCCc1nc2ccccc2c(=O)[nH]1)N[C@H]1CC[C@H](c2nnc(-c3ccncc3)o2)CC1` [Example 33, 4-(4-oxo-3,4-dihydro-2-quinazolinyl)-N-(trans-4-(5-(4-pyridinyl)-1,3,4-oxadiazol-2-yl)cyclohexyl)butanamide], the IC50 stood at 2840 nM on PARP1; 1140 nM on PARP2; 0.453 nM in assay [2] (400 nM NAD, 60 minutes at RT); 0.341 nM in assay [3]; 34.8 nM in assay [4]. Further, in assay [1] (SW480 cells, 24 hours), the EC50 is 25.7 nM.

In the case of `COc1ccc2[nH]c(=O)n(C3CCN(C(=O)CCCc4nc5ccccc5c(=O)[nH]4)CC3)c2c1` [Example 34, 2-(4-(4-(6-methoxy-2-oxo-2,3-dihydro-1H-benzimidazol-1-yl)-1-piperidinyl)-4-oxobutyl)-4(3H)-quinazolinone], the IC50 was found to be 629 nM at PARP1; 431 nM against PARP2; 1.97 nM in assay [2] (400 nM NAD, 60 minutes at RT); 0.981 nM in assay [3]; 101 nM in assay [4]. Also, the EC50 in assay [1] (SW480 cells, 24 hours) was determined as 96.9 nM.

Turning to `O=C(CCCc1nc2ccccc2c(=O)[nH]1)N[C@H]1CC[C@H](c2nnc(-c3cccc(Cl)c3)o2)CC1` [Example 36, N-(trans-4-(5-(3-chlorophenyl)-1,3,4-oxadiazol-2-yl)cyclohexyl)-4-(4-oxo-3,4-dihydro-2-quinazolinyl)butanamide 2,2,2-trifluoroacetate], the IC50 on PARP1 was determined as 1140 nM; against PARP2, 701 nM; in assay [2] (400 nM NAD, 60 minutes at RT), 0.367 nM; in assay [3], 0.27 nM; in assay [4], 29.9 nM. Besides, the EC50 in assay [1] (SW480 cells, 24 hours) amounted to 22 nM.

Take `O=C(CCCc1nc2ccccc2c(=O)[nH]1)N1CCC(n2c(=O)[nH]c3ccccc32)CC1` [Example 41, 2-(4-oxo-4-(4-(2-oxo-2,3-dihydro-1H-benzimidazol-1-yl)-1-piperidinyl)butyl)-4(3H)-quinazolinone trifluoroacetic acid]: the IC50 against PARP1 came out at 1490 nM; against PARP2, 500 nM; in assay [2] (400 nM NAD, 60 minutes at RT), 8.05 nM; in assay [3], 4.91 nM; in assay [4], 1710 nM. Further, the EC50 in assay [1] (SW480 cells, 24 hours) came out at 3380 nM.

On to `O=C(CCCc1nc2ccccc2c(=O)[nH]1)N1CCC(c2nnc(-c3ccccc3)o2)CC1` [Example 42, 2-(4-oxo-4-(4-(5-phenyl-1,3,4-oxadiazol-2-yl)-1-piperidinyl)butyl)-4(3H)-quinazolinone], for which the IC50 stood at 7470 nM on PARP1; 825 nM at PARP2; 28.2 nM in assay [2] (400 nM NAD, 60 minutes at RT); 8.26 nM in assay [3]; 132 nM in assay [4]. Moreover, the EC50 in assay [1] (SW480 cells, 24 hours) came out at 843 nM.

Turning to `O=C(CCCc1nc2ccccc2c(=O)[nH]1)N1CCC(N2C(=O)Cc3ccccc32)CC1` [Example 43, 2-(4-oxo-4-(4-(2-oxo-2,3-dihydro-1H-indol-1-yl)-1-piperidinyl)butyl)-4(3H)-quinazolinone], the IC50 against PARP1 amounted to 6420 nM; at PARP2, 1060 nM; in assay [2], 33.5 nM; in assay [3], 16.6 nM; in assay [4] it was 1910 nM. Besides, the EC50 in assay [1] (SW480, 24 h) worked out at 3880 nM.

Take `O=C(CCCc1nc2ccccc2c(=O)[nH]1)N1CCC(n2c(=O)oc3ccccc32)CC1` [Example 44, 2-(4-oxo-4-(4-(2-oxo-1,3-benzoxazol-3(2H)-yl)-1-piperidinyl)butyl)-4(3H)-quinazolinone]: the IC50 at PARP1 amounted to 7610 nM; against PARP2 it was 363 nM; in assay [2] (400 nM NAD, 60 minutes at RT), 8.97 nM; in assay [3] it was 3.53 nM; in assay [4], 681 nM. Besides, the EC50 in assay [1] (SW480 cells, 24 hours) came to 2930 nM.

With `O=C(CCCc1nc2ccccc2c(=O)[nH]1)N1CCC(n2c(=O)[nH]c3ncccc32)CC1` [Example 47, 2-(4-oxo-4-(4-(2-oxo-2,3-dihydro-1H-imidazo[4,5-b]pyridin-1-yl)-1-piperidinyl)butyl)-4(3H)-quinazolinone trifluoroacetic acid], the IC50 against PARP1 turned out to be 2440 nM; on PARP2 it was 1590 nM; in assay [2] (400 nM NAD, 60 minutes at RT), 3.97 nM; in assay [3] it was 1.18 nM; in assay [4], 233 nM. Besides, in assay [1] (SW480 cells, 24 hours), the EC50 came to 1270 nM.

`O=C(CCCc1nc2ccccc2c(=O)[nH]1)N1CCC(c2n[nH]c3ccccc23)CC1` [Example 48, 2-(4-(4-(1H-indazol-3-yl)-1-piperidinyl)-4-oxobutyl)-4(3H)-quinazolinone trifluoroacetic acid]: the IC50 at PARP1 came to 1980 nM; at PARP2, 1350 nM; in assay [2] (400 nM NAD, 60 minutes at RT) it was 5.15 nM; in assay [3] it was 0.596 nM; in assay [4], 111 nM. Further, in assay [1] (SW480 cells, 24 hours), the EC50 was determined as 417 nM.

Regarding `O=C(CCCc1nc2ccccc2c(=O)[nH]1)N1CCC(n2c(=O)sc3ccccc32)CC1` [Example 50, 2-(4-oxo-4-(4-(2-oxo-1,3-benzothiazol-3(2H)-yl)-1-piperidinyl)butyl)-4(3H)-quinazolinone trifluoroacetic acid], the IC50 at PARP1 is 10700 nM; against PARP2, 748 nM; in assay [2] (400 nM NAD, 60 minutes at RT) it was 6.49 nM; in assay [3], 1.81 nM; in assay [4], 256 nM. In addition, the EC50 in assay [1] (SW480 cells, 24 hours) was determined as 1550 nM.

Take `O=C(CCCc1nc2ccccc2c(=O)[nH]1)N1CCC(n2c(=O)[nH]c3cc(F)ccc32)CC1` [Example 51, 2-(4-(4-(5-fluoro-2-oxo-2,3-dihydro-1H-benzimidazol-1-yl)-1-piperidinyl)-4-oxobutyl)-4(3H)-quinazolinone trifluoroacetic acid]: the IC50 at PARP1 was determined as 894 nM; on PARP2, 553 nM; in assay [2] (400 nM NAD, 60 minutes at RT), 4.09 nM; in assay [3], 0.517 nM; in assay [4] it was 348 nM. The EC50 in assay [1] (SW480 cells, 24 hours) is 661 nM.

As for `O=C(CCCc1nc2ccccc2c(=O)[nH]1)N1CCC(n2c(=O)[nH]c3cc(C(F)(F)F)ccc32)CC1` [Example 52, 2-(4-oxo-4-(4-(2-oxo-5-(trifluoromethyl)-2,3-dihydro-1H-benzimidazol-1-yl)-1-piperidinyl)butyl)-4(3H)-quinazolinone trifluoroacetic acid], the IC50 worked out at 3830 nM at PARP1; 1020 nM at PARP2; 1.3 nM in assay [2] (400 nM NAD, 60 minutes at RT); 0.193 nM in assay [3]; 25.2 nM in assay [4]. In assay [1] (SW480 cells, 24 hours), the EC50 stood at 94.7 nM.

`O=C(CCCc1nc2ccccc2c(=O)[nH]1)N1CCC(n2c(=O)oc3cc(F)ccc32)CC1` [Example 53, 2-(4-(4-(6-fluoro-2-oxo-1,3-benzoxazol-3(2H)-yl)-1-piperidinyl)-4-oxobutyl)-4(3H)-quinazolinone trifluoroacetic acid]: the half-inhibitory concentration (IC50) against PARP1 came out at 2570 nM; at PARP2, 998 nM; in assay [2] (400 nM NAD, 60 minutes at RT), 3.17 nM; in assay [3], 0.593 nM; in assay [4], 50.3 nM. Besides, the EC50 in assay [1] (SW480 cells, 24 hours) worked out at 359 nM.

In the case of `Cn1c(=O)n(C2CCN(C(=O)CCCc3nc4ccccc4c(=O)[nH]3)CC2)c2ccccc21` [Example 54, 2-(4-(4-(3-methyl-2-oxo-2,3-dihydro-1H-benzimidazol-1-yl)-1-piperidinyl)-4-oxobutyl)-4(3H)-quinazolinone], the IC50 was found to be 3200 nM at PARP1; 673 nM on PARP2; 39.1 nM in assay [2] (400 nM NAD, 60 minutes at RT); 17 nM in assay [3]; 1120 nM in assay [4]. The EC50 in assay [1] (SW480 cells, 24 hours) is 3630 nM.

With `O=C(CCCc1nc2ccccc2c(=O)[nH]1)N1CCN(c2n[nH]c3ccccc23)CC1` [Example 55, 2-(4-(4-(1H-indazol-3-yl)-1-piperazinyl)-4-oxobutyl)-4(3H)-quinazolinone], the IC50 at PARP1 was determined as 1800 nM; on PARP2, 284 nM; in assay [2] (400 nM NAD, 60 minutes at RT), 1.76 nM; in assay [3], 0.401 nM; in assay [4] it was 46.5 nM. The EC50 in assay [1] (SW480 cells, 24 hours) was determined as 193 nM.

For `O=C(CCCc1nc2ccccc2c(=O)[nH]1)N[C@H]1CC[C@H](Oc2ccccn2)CC1` [Example 56, 4-(4-oxo-3,4-dihydro-2-quinazolinyl)-N-(trans-4-(2-pyridinyloxyl)cyclohexyl)butanamide], the IC50 against PARP1 came to 5820 nM; against PARP2 it was 1100 nM; in assay [2] (400 nM NAD, 60 minutes at RT), 2.51 nM; in assay [3] it was 0.719 nM; in assay [4], 73.6 nM. Besides, the EC50 in assay [1] (SW480 cells, 24 hours) was determined as 266 nM.

Consider `N#Cc1ccccc1O[C@H]1CC[C@H](NC(=O)CCCc2nc3ccccc3c(=O)[nH]2)CC1` [Example 57, N-(trans-4-(2-cyanophenoxy)cyclohexyl)-4-(4-oxo-3,4-dihydro-2-quinazolinyl)butanamide], for which the IC50 at PARP1 worked out at 5960 nM; against PARP2, 905 nM; in assay [2] (400 nM NAD, 60 minutes at RT), 31.2 nM; in assay [3], 12.5 nM; in assay [4], 510 nM. Besides, in assay [1] (SW480 cells, 24 hours), the EC50 was 1710 nM.

As to `N#Cc1cccc(O[C@H]2CC[C@H](NC(=O)CCCc3nc4ccccc4c(=O)[nH]3)CC2)c1` [Example 58, N-(trans-4-(3-cyanophenoxy)cyclohexyl)-4-(4-oxo-3,4-dihydro-2-quinazolinyl)butanamide], the IC50 on PARP1 is 1580 nM; against PARP2, 983 nM; in assay [2] (400 nM NAD, 60 minutes at RT), 3.26 nM; in assay [3], 1.25 nM; in assay [4], 98.9 nM. The 50% effective concentration (EC50) in assay [1] (SW480 cells, 24 hours) stood at 354 nM.

Take `O=C(CCCc1nc2ccccc2c(=O)[nH]1)N[C@H]1CC[C@H](Oc2cccnc2)CC1` [Example 59, 4-(4-oxo-3,4-dihydro-2-quinazolinyl)-N-(trans-4-(3-pyridinyloxyl)cyclohexyl)butanamide]: the IC50 on PARP1 stood at 1900 nM; against PARP2, 371 nM; in assay [2] (400 nM NAD, 60 minutes at RT), 11.8 nM; in assay [3], 2.39 nM; in assay [4] it was 208 nM. In assay [1] (SW480 cells, 24 hours), the EC50 was determined as 951 nM.
